Consider twelve molecules from PubChem BioAssay (NCI).

Some test systems named below: MDA-N; ACHN renal; CAKI-1 renal; 786-0 renal; HCC-2998 colon; SR leukemia; SNB-19 CNS; EKVX NSCLC; SK-MEL-5 melanoma; HOP-92 NSCLC; NCI-H522 lung; NCI/ADR-RES ovarian.
What all share (test): growth of human tumour cells (NCI), 48 h

Each structure is given as a SMILES string.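 All cell lines were grown in 96-well plates and treated with compound for 48 hours. At the TGI there is no net growth.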

On to `COc1ccc(/C=C2\OC(=O)C(Cl)=C2c2ccc(OC)c(Cl)c2)cc1`, for which the TGI with MDA-N is 47.1 µM; in the assay with ACHN renal, over 100 µM; in the assay on CAKI-1 renal, 56.8 µM; with 786-0 renal, 35.5 µM; in the assay with HCC-2998 colon, over 100 µM; in the assay with SR leukemia, over 100 µM. The TGI with SNB-19 CNS was over 100 µM; in the assay with EKVX NSCLC, 51.8 µM; with SK-MEL-5 melanoma it was 48.6 µM; in the assay with HOP-92 NSCLC, 46.1 µM; with NCI-H522 lung, 79 µM; with NCI/ADR-RES ovarian, 52.6 µM.

With `CSc1c(C)n([O-])c2cc(Cl)c(Cl)cc2[n+]1=O`, the TGI in the assay with MDA-N is 33.9 µM; in the assay on ACHN renal it was 30.7 µM; in the assay on CAKI-1 renal, 32.5 µM; with 786-0 renal it was 33.2 µM; in the assay with HCC-2998 colon, 38 µM; in the assay with SR leukemia, 5.69 µM. Moreover, the TGI in the assay on SNB-19 CNS is over 100 µM; with EKVX NSCLC, 31 µM; with SK-MEL-5 melanoma, 34.3 µM; in the assay on HOP-92 NSCLC, 30.3 µM; in the assay on NCI-H522 lung it was 29.3 µM; in the assay on NCI/ADR-RES ovarian it was 39.3 µM.

Consider `CC(=O)c1c(O)cc(O)c(-c2c(C)cc(O)c3c2C(=O)c2cccc(O)c2C3=O)c1O`, for which the TGI turned out to be 30.8 µM in the assay on MDA-N; 25.5 µM in the assay on ACHN renal; 31.7 µM in the assay on 786-0 renal; 53.8 µM in the assay with SR leukemia; 39.1 µM in the assay with SNB-19 CNS; 31.9 µM in the assay on EKVX NSCLC. The results for the TGI in the assay with HOP-92 NSCLC, in the assay with NCI-H522 lung and in the assay on NCI/ADR-RES ovarian were 26.1 µM, 24.7 µM and 42.2 µM, respectively.

For the molecule `CCOC(=O)CN1C(=O)C(=O)N(c2ccc(OC)c3ccccc23)C1=O`, the TGI in the assay with MDA-N, in the assay on ACHN renal, with CAKI-1 renal, in the assay on 786-0 renal, in the assay on HCC-2998 colon and in the assay with SR leukemia was over 100 µM in each case. Also, the TGI in the assay with SNB-19 CNS, in the assay with EKVX NSCLC, in the assay with SK-MEL-5 melanoma, with NCI-H522 lung and in the assay on NCI/ADR-RES ovarian was over 100 µM each time.

`COc1ccc(C2=Nc3c(nc(SC)[nH]c3=O)NC(c3ccccc3)C2)cc1` (stereo not given): the TGI in the assay with MDA-N was 35.4 µM; with ACHN renal, 56.7 µM; in the assay on CAKI-1 renal, 31 µM; in the assay on 786-0 renal it was over 100 µM; in the assay with SR leukemia, over 100 µM; in the assay on SNB-19 CNS, 65.4 µM. Further, the TGI in the assay on EKVX NSCLC was 67.8 µM; with SK-MEL-5 melanoma, 30.1 µM; in the assay with HOP-92 NSCLC, over 100 µM; with NCI-H522 lung, 35.7 µM; with NCI/ADR-RES ovarian it was 77.3 µM.

As to `CC(C)N1[C@@H]2CCCC[C@H]2N(C(C)C)[P+]1=O`, the TGI with MDA-N, in the assay with ACHN renal, in the assay with CAKI-1 renal, in the assay with 786-0 renal, in the assay with HCC-2998 colon and in the assay with SR leukemia was over 100 µM each time. In addition, the TGI in the assay with EKVX NSCLC, in the assay with SK-MEL-5 melanoma, in the assay with HOP-92 NSCLC, in the assay with NCI-H522 lung and in the assay with NCI/ADR-RES ovarian was over 100 µM in each case.

Take `CCCCOc1ccc(S(=O)(=O)/N=C(\NO)Nc2ccc(Cl)cc2)cc1`: the TGI in the assay on MDA-N was found to be 31.6 µM; in the assay on ACHN renal, 28.2 µM; with CAKI-1 renal, 23.2 µM; in the assay on 786-0 renal, 29.2 µM; in the assay with HCC-2998 colon, 28.9 µM; with SR leukemia, 67.3 µM. For the same molecule, the TGI was 30.5 µM in the assay on SNB-19 CNS; 29.5 µM in the assay on EKVX NSCLC; 28.1 µM in the assay on SK-MEL-5 melanoma; 19.3 µM in the assay on HOP-92 NSCLC; 30.1 µM in the assay with NCI-H522 lung; 33.1 µM with NCI/ADR-RES ovarian.

For the molecule `CCN(CC)C(=O)c1cc([N+](=O)[O-])c(=O)n2c1[nH]c1ccccc12`, the TGI with MDA-N, in the assay on ACHN renal, in the assay on CAKI-1 renal, in the assay with 786-0 renal, with HCC-2998 colon and with SR leukemia was over 100 µM each time. In addition, the TGI in the assay with SNB-19 CNS, in the assay on EKVX NSCLC, in the assay on SK-MEL-5 melanoma, in the assay with HOP-92 NSCLC, with NCI-H522 lung and in the assay with NCI/ADR-RES ovarian was over 100 µM throughout.

Take `COc1ccc(/N=N/C(=NNC(=O)c2ccc(C)cc2)c2ccc(N(C)C)cc2)cc1`: the TGI in the assay with MDA-N was over 73.4 µM; with ACHN renal, over 89.9 µM; in the assay on CAKI-1 renal, over 100 µM; in the assay on 786-0 renal, over 100 µM; with HCC-2998 colon, 98.4 µM; in the assay with SR leukemia, 88.7 µM. The TGI in the assay with SNB-19 CNS was over 100 µM; in the assay with EKVX NSCLC it was over 100 µM; in the assay on SK-MEL-5 melanoma it was over 95.3 µM; with HOP-92 NSCLC it was over 100 µM; in the assay on NCI-H522 lung it was 97.9 µM; in the assay on NCI/ADR-RES ovarian, over 100 µM.

`Cc1ccc2c(c1)Nc1ccccc1P2(=O)O`: the TGI in the assay with MDA-N, in the assay with ACHN renal, with CAKI-1 renal, in the assay on 786-0 renal, in the assay on HCC-2998 colon and in the assay on SR leukemia was over 100 µM throughout. Moreover, the TGI in the assay on SNB-19 CNS, in the assay on EKVX NSCLC, in the assay with SK-MEL-5 melanoma, with HOP-92 NSCLC, with NCI-H522 lung and in the assay with NCI/ADR-RES ovarian was over 100 µM in each case.

Regarding `CC1=NN2CCC(=O)N=C2S1`, the TGI in the assay on MDA-N, in the assay with ACHN renal, in the assay on CAKI-1 renal, in the assay on 786-0 renal, in the assay on SR leukemia and in the assay with SNB-19 CNS was over 100 µM throughout. The TGI with EKVX NSCLC, in the assay with SK-MEL-5 melanoma, with HOP-92 NSCLC, with NCI-H522 lung and in the assay with NCI/ADR-RES ovarian was over 100 µM in each case.

On to `COc1cccc(N(CN2C(=O)CCC2OC)C(C)=O)c1` (stereo not given), for which the TGI with MDA-N, in the assay on ACHN renal, with CAKI-1 renal, in the assay on 786-0 renal, in the assay with HCC-2998 colon and in the assay with SR leukemia was over 100 µM each time. For the same molecule, the TGI in the assay with SNB-19 CNS, in the assay on SK-MEL-5 melanoma, with HOP-92 NSCLC and in the assay on NCI/ADR-RES ovarian was over 100 µM in each case.
